From US12110510B2, “Functional cortico-spinal-muscle assembled spheroids” (The Board of Trustees of the Leland Stanford Junior …, priority 2018, dated 2024)
Entries after “also recorded” stand apart in the source; their conditions may differ.

Experiments:
[1] = tested on: hCS-hSpS-hSkM assembloids; experiment: Glutamate uncaging in hCS-hSpS-hSkM assembloids, muscle contraction; format: cell-based, human
Protocol: (§1) Generation of hSpS-hSkM or hCS-hSpS-hSkM assembloids. To generate neural-muscle assembloids, 3D hSkM that had been in differentiation medium for at least 10 days (see above) were removed from the silicone wells and placed on top of cell culture inserts (0.4 μm pore size; 353090, Corning) that were positioned in 6-well plates containing 2 ml of DMEM/F12 medium supplemented with 1% Non-Essential Amino Acids (NEAA, Life Technologies), 1% Insulin-Transferrin-Selenium (ITS, Life Technologies), 1% penicillin and streptomycin (Life Technologies), L-Ascorbic Acid (AA; 200 nM, Wako) and cAMP (50 nM, Sigma-Aldrich). Next, spheroids (either hSpS or hCS) were placed on the inserts containing 3D hSkM and arranged so that they were in contact with one another and were allowed to interact.
Glutamate uncaging and optogenetic stimulation. Intact assembloids were imaged under environmentally controlled conditions (37° C., 5% CO2) using a 5× objective in a confocal microscope (Leica SP8). Assembloids, still in transwells, were incubated in the environmentally controlled chamber for 20-30 minutes before imaging. […] At a frame rate of 14.7 frames/sec, a typical stimulation experiment consisted of 500 frames acquired during pre-stimulation, 5 frames of UV stimulation (in specified region of interest, ROI) and 200 frames acquired during poststimulation. For optogenetic stimulation, five pulses of light (625 nm, 68 ms in duration each and ˜68 seconds apart) were delivered using an optical fiber-coupled LED (400 μmdiameter, 13.2 mW; Thorlabs) that was directed towards the hCS.

hCS-hSkM assembloid = details: hCS assembled with hSkM, no hSpS
Protocol: as §1
(§2) Glutamate uncaging and optogenetic stimulation. Intact assembloids were imaged under environmentally controlled conditions (37° C., 5% CO2) using a 5× objective in a confocal microscope (Leica SP8). Assembloids, still in transwells, were incubated in the environmentally controlled chamber for 20-30 minutes before imaging. […] At a frame rate of 14.7 frames/sec, a typical stimulation experiment consisted of 500 frames acquired during pre-stimulation, 5 frames of UV stimulation (in specified region of interest, ROI) and 200 frames acquired during poststimulation. […]

hSpS-hSkM assembloids = details: 405 nm, in the presence of MNI-caged glutamate (3.3 mM)
Protocol: as §1, §2

hSpS [2] = experiment: Combinatorial growth factor matrix, gene expression of 16 markers at day 20; format: cell-based, human
Description: To establish hSpS differentiation conditions, we designed a combinatorial approach, where we used FGF-2, RA, and WNT and SHH modulators at varying concentrations following neural ectoderm specification of early spheroids. […] Briefly, hiPS cell colonies were lifted from plates using the enzyme dispase, moved to ultra-low attachment plates to form spheroids and exposed to dual SMAD inhibition as we have previously described. Starting on day 4 of in vitro differentiation, neural spheroids were exposed to 3 μM of the WNT activator CHIR-99021, and to 20 ng/ml EGF from day 6 onward. Neural spheroids also received a combination of RA (0.01 or 0.1 μM) and FGF-2 (0, 10 or 20 ng/ml) from day 6, and the SHH activator smoothened agonist (SAG; 0, 0.01, 0.1 or 1 μM) from day 11.
For the combinatorial growth factor matrix, small molecules were added on the same days as described above, and the concentrations for dual SMAD inhibitors, CHIR 99021 and EGF were the same as above. From day 7, the neural medium was changed every other day until day 20, when spheres were collected. No DAPT was added for this experiment.
Real-time quantitative PCR (qPCR). For qPCR analysis of spheroids, at least 2-3 spheroids were pooled per sample. mRNA was isolated using the RNeasy Mini kit and RNase-Free DNase set (Qiagen), and template cDNA was prepared by reverse transcription using the SuperScript Ill First-Strand Synthesis SuperMix for qRT-PCR (Life Technologies). qPCR was performed using Sybr Green (Roche) on a ViiA7 machine (Applied Biosystems, Life Technologies).

[3] = tested on: hCS-hSpS-hSkM assembloids; experiment: Optogenetic stimulation of hCS in hCS-hSpS-hSkM assembloids, muscle displacement; format: cell-based, human; details: NBQX (50 μM) and APV (50 μM) added together; Chrim-expressing hCS, 625 nm
Description: Glutamate uncaging and optogenetic stimulation.
Contraction analysis. […] The mean covariance per field was plotted.

hSpS [4] = experiment: Single-cell gene expression of hSpS with or without DAPT (BD Rhapsody); format: cell-based, human; details: hSpS differentiated in the presence of DAPT (2.5 μM, days 19, 21, 23) versus hSpS(−)DAPT; day 45
Protocol: To generate hSpS, hiPS cell medium was supplemented with dual SMAD inhibitors until day 5 and the WNT activator CHIR 99021 (3 μM, Selleckchem) from day 4 to day 18. On day 6, spheroids were transferred to neural medium supplemented with RA (0.1 μM, Sigma-Aldrich), EGF (20 ng ml-1; R&D Systems) and FGF-2 (10 ng ml-1; R&D Systems), with addition of the SHH modulator smoothened agonist (SAG, 0.1 μM, Millipore) from day 11. From day 7, the medium was changed every other day. […] For hSpS, the Notch inhibitor DAPT (2.5 μM, STEMCELL technologies) was added on days 19, 21 and 23. From day 43 onwards, the medium was changed every four to five days.
Single-cell gene expression (BD Rhapsody system). […] Cell labels and molecular indices were identified, and gene identity was determined by alignment against the gencode comprehensive hg19 reference. […] Gene expression profiles of 4,175 and 3,173 cells were recovered for hSpS with or without DAPT, respectively, with an average number of reads of ˜17,000, ˜2,400 molecules and ˜1,400 number of genes detected per cell with average molecular index coverage (that is, the number of times a molecule was sequenced) of 4.8. […]

hSC [5] = experiment: Gene expression analysis (qPCR) of neuronal subtype markers in hSC or hSC+D; format: cell-based, human; details: DAPT+ condition (2.5 μM) versus hSC; day 30
Protocol: (§3) From day 4 in suspension, cultures were supplemented with the GSK-3 inhibitor CHIR 99021 (3 μM). On day 6, spheroids were transferred to neural medium containing neurobasal-A, B-27 supplement without vitamin A, GlutaMax (1:100), penicillin and streptomycin, and supplemented with retinoic acid (RA, 100 nM), EGF (20 ng/ml) and FGF-2 (10 ng/ml). On day 11 of differentiation spheroids were supplemented with the SHH pathway agonist Smoothened Agonist (SAG, 100 nM), in addition to the compounds described above. From day 7 onwards, media was changed every other day. For the hSC+D condition, spheroids received the gamma-secretase inhibitor DAPT (2.5 μM) on days 19, 21 and 23. From day 19, once the initial fate specification stage is finalized, hSCs were transferred to neural medium containing neurobasal-A, B-27 supplement without vitamin A, N−2 supplement, GlutaMax (1:100), penicillin and streptomycin (1:100), and supplemented with BDNF (20 ng/ml), IGF (10 ng/ml), L-Ascorbic Acid (AA, 200 nM) and cAMP (62.5 nM).

hSC [6] = experiment: Immunocytochemistry of hSC cytoarchitecture; format: cell-based, human; details: DAPT+ hSC condition; day 45
Protocol: as §3

[7] = tested on: hSpS-limb assembloids (mouse limb buds); experiment: Contraction of hSpS-limb assembloids; format: cell-based; details: curare 100 μM; 14 days after fusion
Protocol: Co-culture of mouse limb and spheroids. For mouse co-culture experiments, timed-pregnant females were sacrificed at E11.5, embryos were collected, and limb buds dissected (both forelimbs and hindlimbs were used for this experiment). Limbs and spheroids (at D25) were then assembled together by placing them in close proximity in a 1.5 ml microcentrifuge tube for 3 days in an incubator. One limb and one spheroid were placed per tube. On day 2 medium was carefully changed. Neural medium supplemented with N−2 supplement (Life Technologies, 17502048) was used. After assembly, mouse-spheroid cultures were placed in 24-well ultralow-attachment plates (Corning), and medium was changed every other day. For contraction quantification, assembloids were visualized using brightfield illumination in an EVOS FL Cell Imaging System (Life Technologies), and they were deemed to be contracting if they moved within a time-window of 30 seconds. Approval for mouse experiments was obtained from the Stanford University's Administrative Panel on Laboratory Animal Care (APLAC).

hSkM = hSkM calcium imaging (Cal-590 AM) in 2D co-culture with hSpS; format: cell-based, human; details: curare 100 μM; 2D hSkM co-cultured with hSpS; 2-minute period
Protocol: hSkM calcium imaging. For calcium imaging co-culture experiments, hSkM were plated on 24-well plates as described above and differentiated with Skeletal Muscle Cell Differentiation Medium. After 6-7 days of exposure to differentiation medium, hSkM were co-cultured with hSpS or hCS. […] One hSpS or hCS were placed per well. hSkM-spheroid co-cultures were left undisturbed for two days, and half medium was carefully replaced every other day thereafter. Calcium imaging was performed after 6-7 days of co-culture. Cultures were incubated with Cal-590 AM (10 μM, AAT Bioquest) and PowerLoad (1:100, Invitrogen) for 30 minutes at 37° C., washed once for 10 minutes with full medium and then imaged. A Leica SP8 confocal microscope with a resonant scanner was used for imaging. Spontaneous calcium activity was recorded for 2 min (10 frames per second) in 6-9 fields per well, and for each field the distance from the spheroid was measured.
Calcium imaging. Calcium imaging data was processed using ImageJ (Fiji) and custom MATLAB routines. […] A total number of 798 (hSkM condition), 652 (hCS+hSkM condition), 1006 (hSpS+hSkM condition) and 727 (hSpS+hSkM+curare condition) hSkM fibers were analyzed. Following ROI registration, raw time-series movies were transformed to relative changes in fluorescence: dF/F(t)=(F(t)−F0)/F0, where F0 represented the 5th percentile value of the time series of each ROI. […]

hCS-hSC-hSkM assembloid = experiment: Glutamate uncaging in hCS-hSC-hSkM assembled spheroids (Example 1), hSkM contraction; details: tubocurarine 100 μM
Description: For cortico-spinal-muscle assembled spheroids, hCS-hSC assembled spheroids were placed on tissue culture inserts and positioned so that hSC was in contact with the 3D hSkM constructs. Media was changed every other day.
The FRAP module of the Leica SP8 confocal microscope was used to uncage glutamate using UV light.

## COc1ccc([N+](=O)[O-])c2c1CCN2C(=O)CC[C@H](N)C(=O)O [MNI-caged glutamate, MNI-caged-L-glutamate]
[1]; 405 nm uncaging on hCS
  Muscle contraction upon uncaging in hCS: robust muscle contraction
[1]; 405 nm uncaging on hSpS
  hSkM contraction upon stimulation of hSpS: coupled with hSkM contraction
hCS-hSkM assembloid
  Response to glutamate uncaging of hCS: did not elicit a response
hSpS-hSkM assembloids
  hSkM contraction upon photostimulation of hSpS: resulted in hSkM contraction

## CNC1CCC(N(Cc2cccc(-c3ccncc3)c2)C(=O)c2sc3ccccc3c2Cl)CC1 (centres unmarked) [SAG]
hSpS [2]; high SAG exposure
  Expression of ventral progenitor marker genes OLIG2, NKX6-1, FOXA2 and post-mitotic markers CHX10 and ISL1: higher expression

## FGF-2: growth factor FGF-2 (R&D Systems)
hSpS [2]; high levels of RA and low levels of FGF-2
  Rostro-caudal fate (HOXA2 expression pattern): more rostral fates
hSpS [2]; low levels of RA and high levels of FGF-2
  Rostro-caudal fate (HOXC9 expression): more caudal fates

## N[C@@H](CCCP(=O)(O)O)C(=O)O [APV]
[3]
  Light induced responses (muscle displacement/contraction) upon hCS optogenetic stimulation: completely abolished

## C[C@H](NC(=O)Cc1cc(F)cc(F)c1)C(=O)N[C@H](C(=O)OC(C)(C)C)c1ccccc1 [DAPT]
hSpS [4]
  Increase in the proportion of motor neurons: approximately three-fold
hSC [5]
  Expression of some interneuron markers (GATA3, EN1, EVX1): lower expression
  Expression of the MN markers ISL1 and HB9: higher expression
hSC [6]
  Cytoarchitecture of hSC (position of cell bodies and axons): cell bodies were found on the inside of the spheroid, while axons were found on the outside of hSC

## NBQX
[3]
  Light induced responses (muscle displacement/contraction) upon hCS optogenetic stimulation: completely abolished

## COc1cc2c3cc1Oc1cc(ccc1O)C[C@@H]1c4c(cc(OC)c(O)c4Oc4ccc(cc4)C[C@@H]3N(C)CC2)CC[N+]1(C)C [curare, (+)-tubocurarine chloride pentahydrate]
[7]
  Contraction activity in hSpS-limb assembloids: completely blocked
hSkM
  Increase in proportion of active hSkM (spontaneous calcium activity) in hSpS-hSkM: blocked
[1]; 100 μm curare
  Muscle contraction upon glutamate uncaging in hCS: blocked; also recorded: stops
hCS-hSC-hSkM assembloid
  hSkM contraction after glutamate uncaging on hSC: blocked
